Assay results as given in the NIST ThermoML archive (doi:10.1016/j.fluid.2018.07.028).
± gives the expanded uncertainty stated by the source.

Assay: activity coefficient (dimensionless); of the first substance listed, at infinite dilution; xn = mol fraction of the nth substance listed
Settings: 101.33 kPa, Liquid, Chromatography, x1 = 0

Structure (SMILES) | activity coefficient (358.15 K) | activity coefficient (368.15 K) | activity coefficient (378.15 K) | activity coefficient (388.15 K) | activity coefficient (398.15 K) | activity coefficient (408.15 K)
Cc1ccccc1C [1,2-dimethylbenzene] + CCCC[P+](CCCC)(CCCC)CCCC.O=S(=O)([N-]S(=O)(=O)C(F)(F)F)C(F)(F)F | 1.39 ± 0.09 | 1.43 ± 0.09 | 1.48 ± 0.1 | 1.52 ± 0.1 | 1.57 ± 0.1 | 1.61 ± 0.11
Cc1cccc(C)c1 [1,3-dimethylbenzene] + CCCC[P+](CCCC)(CCCC)CCCC.O=S(=O)([N-]S(=O)(=O)C(F)(F)F)C(F)(F)F | 1.53 ± 0.1 | 1.58 ± 0.1 | 1.63 ± 0.11 | 1.68 ± 0.11 | 1.72 ± 0.12 | 1.77 ± 0.12
Cc1ccc(C)cc1 [1,4-dimethylbenzene] + CCCC[P+](CCCC)(CCCC)CCCC.O=S(=O)([N-]S(=O)(=O)C(F)(F)F)C(F)(F)F | 1.55 ± 0.1 | 1.6 ± 0.11 | 1.64 ± 0.11 | 1.69 ± 0.11 | 1.74 ± 0.12 | 1.79 ± 0.12
C1COCCO1 [1,4-dioxane] + CCCC[P+](CCCC)(CCCC)CCCC.O=S(=O)([N-]S(=O)(=O)C(F)(F)F)C(F)(F)F | 0.795 ± 0.052 | 0.825 ± 0.053 | 0.853 ± 0.055 | 0.884 ± 0.056 | 0.911 ± 0.058 | 0.941 ± 0.059
C=CCCCCCCCC [1-decene] + CCCC[P+](CCCC)(CCCC)CCCC.O=S(=O)([N-]S(=O)(=O)C(F)(F)F)C(F)(F)F | 7.54 ± 0.51 | 7.48 ± 0.51 | 7.41 ± 0.51 | 7.36 ± 0.5 | 7.3 ± 0.5 | 7.25 ± 0.49
C=CCCCCC [1-heptene] + CCCC[P+](CCCC)(CCCC)CCCC.O=S(=O)([N-]S(=O)(=O)C(F)(F)F)C(F)(F)F | 3.96 ± 0.27 | 4 ± 0.27 | 4.05 ± 0.28 | 4.09 ± 0.28 | 4.13 ± 0.28 | 4.17 ± 0.28
C#CCCCCC [1-heptyne] + CCCC[P+](CCCC)(CCCC)CCCC.O=S(=O)([N-]S(=O)(=O)C(F)(F)F)C(F)(F)F | 2.28 ± 0.16 | 2.35 ± 0.16 | 2.42 ± 0.16 | 2.48 ± 0.17 | 2.55 ± 0.17 | 2.62 ± 0.18
C#CCCCC [1-hexyne] + CCCC[P+](CCCC)(CCCC)CCCC.O=S(=O)([N-]S(=O)(=O)C(F)(F)F)C(F)(F)F | 1.88 ± 0.13 | 1.94 ± 0.13 | 2 ± 0.14 | 2.06 ± 0.14 | 2.11 ± 0.14 | 2.17 ± 0.15
CCC[N+](=O)[O-] [1-nitropropane] + CCCC[P+](CCCC)(CCCC)CCCC.O=S(=O)([N-]S(=O)(=O)C(F)(F)F)C(F)(F)F | 0.693 ± 0.047 | 0.708 ± 0.047 | 0.724 ± 0.048 | 0.739 ± 0.049 | 0.754 ± 0.05 | 0.768 ± 0.05
C#CCCCCCC [1-octyne] + CCCC[P+](CCCC)(CCCC)CCCC.O=S(=O)([N-]S(=O)(=O)C(F)(F)F)C(F)(F)F | 2.79 ± 0.19 | 2.87 ± 0.2 | 2.93 ± 0.2 | 3 ± 0.2 | 3.07 ± 0.21 | 3.13 ± 0.21
C=CCCC [1-pentene] + CCCC[P+](CCCC)(CCCC)CCCC.O=S(=O)([N-]S(=O)(=O)C(F)(F)F)C(F)(F)F | 2.61 ± 0.18 | 2.66 ± 0.18 | 2.7 ± 0.18 | 2.74 ± 0.19 | 2.78 ± 0.19 | 2.82 ± 0.19
C#CCCC [1-pentyne] + CCCC[P+](CCCC)(CCCC)CCCC.O=S(=O)([N-]S(=O)(=O)C(F)(F)F)C(F)(F)F | 1.52 ± 0.1 | 1.58 ± 0.1 | 1.64 ± 0.11 | 1.7 ± 0.11 | 1.76 ± 0.12 | 1.82 ± 0.12
CC(C)CC(C)(C)C [2,2,4-trimethylpentane] + CCCC[P+](CCCC)(CCCC)CCCC.O=S(=O)([N-]S(=O)(=O)C(F)(F)F)C(F)(F)F | 5.43 ± 0.37 | 5.42 ± 0.37 | 5.41 ± 0.37 | 5.4 ± 0.37 | 5.39 ± 0.37 | 5.39 ± 0.37
CCC(C)(C)C [2,2-dimethylbutane] + CCCC[P+](CCCC)(CCCC)CCCC.O=S(=O)([N-]S(=O)(=O)C(F)(F)F)C(F)(F)F | 3.93 ± 0.27 | 3.98 ± 0.27 | 4.01 ± 0.27 | 4.05 ± 0.28 | 4.08 ± 0.28 | 4.12 ± 0.28
CCOC(C)(C)C [2-ethoxy-2-methylpropane] + CCCC[P+](CCCC)(CCCC)CCCC.O=S(=O)([N-]S(=O)(=O)C(F)(F)F)C(F)(F)F | 2.72 ± 0.19 | 2.78 ± 0.19 | 2.84 ± 0.19 | 2.91 ± 0.2 | 2.96 ± 0.2 | 3.02 ± 0.21
CCC(C)(C)OC [2-methoxy-2-methylbutane] + CCCC[P+](CCCC)(CCCC)CCCC.O=S(=O)([N-]S(=O)(=O)C(F)(F)F)C(F)(F)F | 2 ± 0.14 | 2.07 ± 0.14 | 2.13 ± 0.14 | 2.2 ± 0.15 | 2.26 ± 0.15 | 2.32 ± 0.16
COC(C)(C)C [2-methoxy-2-methylpropane] + CCCC[P+](CCCC)(CCCC)CCCC.O=S(=O)([N-]S(=O)(=O)C(F)(F)F)C(F)(F)F | 1.66 ± 0.11 | 1.73 ± 0.12 | 1.8 ± 0.12 | 1.87 ± 0.13 | 1.94 ± 0.13 | 2.01 ± 0.14
CC(C)CO [2-methyl-1-propanol] + CCCC[P+](CCCC)(CCCC)CCCC.O=S(=O)([N-]S(=O)(=O)C(F)(F)F)C(F)(F)F | 1.57 ± 0.1 | 1.52 ± 0.1 | 1.46 ± 0.1 | 1.41 ± 0.09 | 1.37 ± 0.09 | 1.33 ± 0.09
CC(C)(C)O [2-methylpropan-2-ol] + CCCC[P+](CCCC)(CCCC)CCCC.O=S(=O)([N-]S(=O)(=O)C(F)(F)F)C(F)(F)F | 1.41 ± 0.09 | 1.4 ± 0.09 | 1.38 ± 0.09 | 1.37 ± 0.09 | 1.36 ± 0.09 | 1.35 ± 0.09
CCC(C)CC [3-methylpentane] + CCCC[P+](CCCC)(CCCC)CCCC.O=S(=O)([N-]S(=O)(=O)C(F)(F)F)C(F)(F)F | 4.02 ± 0.27 | 4.04 ± 0.28 | 4.06 ± 0.28 | 4.09 ± 0.28 | 4.11 ± 0.28 | 4.13 ± 0.28
C=C(C)c1ccccc1 [(1-methylethenyl)benzene] + CCCC[P+](CCCC)(CCCC)CCCC.O=S(=O)([N-]S(=O)(=O)C(F)(F)F)C(F)(F)F | 1.4 ± 0.09 | 1.46 ± 0.1 | 1.52 ± 0.1 | 1.58 ± 0.1 | 1.64 ± 0.11 | 1.7 ± 0.11
CC(C)=O [acetone] + CCCC[P+](CCCC)(CCCC)CCCC.O=S(=O)([N-]S(=O)(=O)C(F)(F)F)C(F)(F)F | 0.503 ± 0.038 | 0.524 ± 0.039 | 0.545 ± 0.04 | 0.567 ± 0.041 | 0.587 ± 0.042 | 0.607 ± 0.042
